Data reported in patent publication US6916933B2, “4-pyridinyl-n-acyl-l-phenylalanines” (Hoffman-La Roche Inc., priority 1999, dated 2005).

Target: T1, alpha4-beta7 on RPMI 8866 cells binding to MadCAM (Homo sapiens, UniProt P13612+P26010)
T1 construct: endogenous in cells; host or cells: RPMI 8866 cells
T1 sequence (P13612 34-1032): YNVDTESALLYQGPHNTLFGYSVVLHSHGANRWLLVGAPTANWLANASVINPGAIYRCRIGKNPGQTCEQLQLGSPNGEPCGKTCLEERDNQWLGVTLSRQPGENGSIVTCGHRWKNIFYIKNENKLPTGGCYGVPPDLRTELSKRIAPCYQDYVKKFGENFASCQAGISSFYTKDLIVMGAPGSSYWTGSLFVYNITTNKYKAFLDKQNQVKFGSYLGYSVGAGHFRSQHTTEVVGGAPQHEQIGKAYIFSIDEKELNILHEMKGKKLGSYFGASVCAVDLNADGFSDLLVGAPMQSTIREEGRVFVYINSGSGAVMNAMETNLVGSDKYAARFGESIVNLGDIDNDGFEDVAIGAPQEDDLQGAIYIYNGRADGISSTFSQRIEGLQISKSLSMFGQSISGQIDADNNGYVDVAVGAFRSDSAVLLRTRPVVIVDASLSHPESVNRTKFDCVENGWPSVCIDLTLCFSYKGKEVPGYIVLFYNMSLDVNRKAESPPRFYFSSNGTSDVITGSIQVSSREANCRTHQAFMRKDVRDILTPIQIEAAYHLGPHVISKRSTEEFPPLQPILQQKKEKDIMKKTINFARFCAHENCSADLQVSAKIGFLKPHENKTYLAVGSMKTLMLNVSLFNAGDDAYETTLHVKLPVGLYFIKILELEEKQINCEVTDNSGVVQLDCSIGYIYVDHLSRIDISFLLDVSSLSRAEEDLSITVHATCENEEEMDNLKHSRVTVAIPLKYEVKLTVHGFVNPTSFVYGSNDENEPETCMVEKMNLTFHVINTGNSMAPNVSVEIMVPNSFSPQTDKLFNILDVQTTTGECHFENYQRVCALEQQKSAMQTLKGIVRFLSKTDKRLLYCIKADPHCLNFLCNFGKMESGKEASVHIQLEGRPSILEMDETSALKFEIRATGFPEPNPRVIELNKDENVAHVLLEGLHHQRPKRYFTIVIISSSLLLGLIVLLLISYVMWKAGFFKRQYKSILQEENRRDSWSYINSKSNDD
T1 sequence (P26010 20-798): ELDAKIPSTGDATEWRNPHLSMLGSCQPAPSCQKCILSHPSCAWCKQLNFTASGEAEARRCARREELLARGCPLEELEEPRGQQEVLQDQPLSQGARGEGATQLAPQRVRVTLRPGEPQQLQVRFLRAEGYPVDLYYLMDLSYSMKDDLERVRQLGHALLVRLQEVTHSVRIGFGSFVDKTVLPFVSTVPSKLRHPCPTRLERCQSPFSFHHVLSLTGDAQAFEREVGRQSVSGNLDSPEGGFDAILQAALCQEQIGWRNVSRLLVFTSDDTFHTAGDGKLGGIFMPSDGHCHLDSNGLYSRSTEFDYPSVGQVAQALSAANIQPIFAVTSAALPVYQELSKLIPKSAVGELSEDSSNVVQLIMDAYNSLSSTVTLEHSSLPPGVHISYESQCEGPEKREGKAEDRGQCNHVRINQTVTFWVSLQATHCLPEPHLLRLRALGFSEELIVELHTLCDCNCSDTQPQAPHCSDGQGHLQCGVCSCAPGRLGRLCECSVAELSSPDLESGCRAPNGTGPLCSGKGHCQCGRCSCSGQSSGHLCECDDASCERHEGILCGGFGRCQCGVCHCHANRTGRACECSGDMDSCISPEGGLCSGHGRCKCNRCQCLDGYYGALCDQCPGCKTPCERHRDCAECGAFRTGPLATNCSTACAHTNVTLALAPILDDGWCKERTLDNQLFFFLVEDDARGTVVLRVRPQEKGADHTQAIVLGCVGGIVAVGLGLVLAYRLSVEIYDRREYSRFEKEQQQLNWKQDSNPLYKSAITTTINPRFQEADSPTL
Assay: Alpha4-Beta7 Assay (MadCAM/RPMI 8866 cell adhesion)
Assay type: cell-based
Details: calcein labeled RPMI 8866 cells, MadCAM coated plates
Protocol: Alpha4-Beta7 Assay Protocol
Two weeks to one day prior to the assay, Nunc high-binding F96 Maxisorp immuno plates, #442404 or #439454, were coated with 25 ng/well (0.25 μg/ml) MadCAM in a volume of 100 μl/well. The plates were covered with sealer and wrapped in saran wrap followed by incubation in the refrigerator for at least 24 hours. The coating buffer employed was: 10 mM carbonate/bicarbonate buffer made up from: 0.8 g/L sodium carbonate and 1.55 g/L sodium bicarbonate adjusted to pH 9.6 with 1 N HCl.
Assay buffers consisted of the following: • Wash Buffer: 0.05% Tween 20 in PBS • Blocking Buffer: 1% Nonfat Dry Milk in PBS • Labeling Buffer: PBS • Cell Buffer: RPMI 1640 medium (no additives) • Binding Buffer: 1.5 mM CaCl2 • 0.5 mM MnCl2 • 50 mM TRIS-HCl; add NaOH dropwise to pH 7.5 • Bring to volume in H2O • Adjust to pH 7.5 • Dilution Buffer: 4% DMSO in Binding Buffer
Plates were washed 2× with wash buffer and then blocked at room temperature for at least 1 hour with Blocking Buffer. Sealed plates were sometimes blocked overnight in the refrigerator. Plates were then washed with PBS and hand blotted dry. Remaining liquid was aspirated from the wells.
Sufficient RPMI 8866 cells were removed from stock for assay (2×10^6 cells/ml×10 ml/plate×number of plates) and placed in a centrifuge tube. The tubes were filled to volume with PBS and were spun at 200×G for 8 minutes. The buffer was poured off and the cells were resuspended to 10×10^6/ml in PBS and a stock solution of calcein in DMSO (5 mg/mL) was added at 5 μl/ml of cell suspension. The suspension was incubated for 30 minutes at 37° C. in dark. The cells were then washed with PBS. The PBS was poured off and the cells resuspended in cell buffer at a concentration of 2×10^6 cells/mL for plating in the assay.
Stock solution of test compounds at 25× first dilution desired in 100% DMSO were prepared. First dilutions for the standard, as well as test compounds, were 1:25 into straight Binding Buffer, while the remaining serial dilutions were into Dilution Buffer (Binding Buffer/4% DMSO). Stock concentrations and dilutions of compounds for screening were determined by anticipated activity.
For the assay, 129 μl Binding Buffer was plated into first row of wells and 100 μl Dilution Buffer was plated into remaining wells. A 5.4 μl aliquot of each compound was pipetted into appropriate, labeled wells, in triplicate. The compounds were next diluted down the plate (34 μl+100 μl=>4-fold dilution). For controls, 100 μl of Dilution Buffer+100 μl Cell Buffer were plated into the nonspecific background wells (no cells, no compound) and 100 μl Dilution Buffer+100 μl cells were plated into the total binding wells (no compound=100% binding). Labeled cells at 2×10^6 cells/ml, 100μl/well (=2×10^5 cells/well) were added to each well containing compound. The plates were sealed and incubated in the dark for 45 minutes at room temperature. Following incubation, unbound cells were removed by adding 150 μl PBS/well. The plates were inverted, blotted onto paper towels and washed by gently adding 200 μl PBS to wells and blotting again. Remaining buffer was carefully aspirated from the wells. A final 100 μl PBS was added to each well.
The plates were then read for fluorescence intensity on a Cytofluor 2300 (Millipore) fluorecence measurement system (excitation=485 nm, emission=530 nm). IC50s of each compound were determined by linear regression analysis.

IC50 [µM]	SMILES
< 0.1	Cc1cc(C(F)(F)F)c(-c2ccc(C[C@H](NC(=O)c3c(Cl)cccc3Cl)C(=O)O)cc2)c(=O)n1C [Example 33, N-[(2,6-dichlorophenyl)carbonyl]-4-[1,6-dimethyl-4-(trifluoromethyl)-2-oxo-3-pyridinyl]-L-phenylalanine]
< 10	CCc1cccc(C)c1C(=O)N[C@@H](Cc1ccc(-c2c(C(F)(F)F)cc(C)n(C)c2=O)cc1)C(=O)O [Example 34, N-[(2-ethyl-6-methylphenyl)carbonyl]-4-[1,6-dimethyl-4-(trifluoromethyl)-2-oxo-3-pyridinyl]-L-phenylalanine]
< 10	Cc1cccc(Cl)c1C(=O)N[C@@H](Cc1ccc(-c2c(C(F)(F)F)cc(C)n(C)c2=O)cc1)C(=O)O [Example 36, N-[(2-chloro-6-methylphenyl)carbonyl]-4-[1,6-dimethyl-4-(trifluoromethyl)-2-oxo-3-pyridinyl]-L-phenylalanine]

The remaining lines, values behind:

SMILES	IC50 [µM]
Cc1cccc(Cl)c1C(=O)N[C@@H](Cc1ccc(-c2cccn(C)c2=O)cc1)C(=O)O [Example 30, N-[(2-chloro-6-methylphenyl)carbonyl]-4-(1-methyl-2-oxo-3-pyridinyl)-L-phenylalanine]	< 10
Cc1ccn(C)c(=O)c1-c1ccc(C[C@H](NC(=O)c2c(Cl)cccc2Cl)C(=O)O)cc1 [Example 31, N-[(2,6-dichlorophenyl)carbonyl]-4-(1,4-dimethyl-2-oxo-3-pyridinyl)-L-phenylalanine]	< 10
Cc1cccc(Cl)c1C(=O)N[C@@H](Cc1ccc(-c2c(C)ccn(C)c2=O)cc1)C(=O)O [Example 32, N-[(2-chloro-6-methylphenyl)carbonyl]-4-(1,4-dimethyl-2-oxo-3-pyridinyl)-L-phenylalanine]	< 10
Cc1cccc(C(C)C)c1C(=O)N[C@@H](Cc1ccc(-c2c(C(F)(F)F)cc(C)n(C)c2=O)cc1)C(=O)O [Example 35, N-[(2-(1-methylethyl)-6-methylphenyl)carbonyl]-4-[1,6-dimethyl-4-(trifluoromethyl)-2-oxo-3-pyridinyl]-L-phenylalanine]	< 5
COCCC1(C(=O)N[C@@H](Cc2ccc(-c3c(C(F)(F)F)cc(C)n(C)c3=O)cc2)C(=O)O)CCCC1 [Example 37, N-[[1-(2-methoxyethyl)cyclopentyl]carbonyl]-4-[1,6-dimethyl-4-(trifluoromethyl)-2-oxo-3-pyridinyl]-L-phenylalanine]	< 10
